The record followed here is patent US10941157B2, “Pesticidal compositions and uses thereof” (Gilead Apollo, LLC, priority 2015, dated 2021).

Converted amounts (≈) assume the structure as drawn.

The subject of experiment [1] is Blumeria graminis f. sp. hordei. Put plainly: Foliar protection test for barley powdery mildew control. The class given is in vivo. As to conditions: foliar spray on Hordeum vulgare cv. Perry, inoculated 24 hours after treatment, evaluated 7 days later. On the procedure: Plants (Hordeum vulgare cv. Perry) were grown for 6 days in 2-inch square pots containing Metromix 200 medium amended with fertilizer. […] After inoculation with the pathogen of Blumeria graminis f. sp. hordei, plants were kept at conditions of 20 to 22° C., 70% relative humidity, and 200 uM of light to facilitate infection and disease development. […] An atomizer was used for applying the solution onto both sides of the leaves until thoroughly wetted. […] At 24 hours after treatment, the plants were moved to a cooler chamber and inoculated by shaking well-colonized, untreated stock plants above the treated plants. This allowed producing a settling cloud of spores and resulting in uniform infection. Efficacy was evaluated in 7 days later by examining leaves for colonization and growth of mildew. Table 4 lists the results of barley powdery mildew control at a compound concentration of 10 ppm or lower.

Another experiment concerns Puccinia triticina. Put plainly: Foliar protection test for wheat leaf rust control. As to conditions: foliar application to wheat (Triticum aestivum cv. Winterhawk), evaluated 10 days later. It is filed as in vivo.
In experiment [2] the test system is Mycosphaerella graminicola (synthetic Septoria tritici). Put plainly: Foliar protection test for wheat septoria leaf blotch control. The class given is in vivo. As to conditions: foliar spray on Triticum aestivum cv. WinterHawk, inoculated 1 hour after treatment, evaluated 16 days later.
A further experiment deals with Rhizoctonia solani (Rs). Description: In vitro pathogen growth inhibition assay, Rs (mycelial plugs). It is filed as cell-based. The following applies: Rhizoctonia solani, 48 h, ≥90% inhibition; mycelial plugs; 48 hours vs 2% DMSO control; read-out: Compound Concentration (ppm) sufficient for ≥90% inhibition of growth, Rs. The procedure, abridged:
(§1)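 Value reported is the compound concentration reaching ≥90% growth inhibition, from OD readings at 24 and 48 h after blank subtraction, confirmed visually. Inoculum was spores diluted in 17% V8 medium, except Rs, using 1.5 mm mycelial plugs in ¼ PDB; actual compound concentration corrected via OD600.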

Experiment [3] has as its system Fusarium moniliforme (Fm). Description: In vitro pathogen growth inhibition assay, Fm. The class given is cell-based. As to conditions: Fusarium verticillioides; ≥90% inhibition; 48 hours vs 2% DMSO control; read-out: Compound Concentration (ppm) sufficient for ≥90% inhibition of growth, Fm. The gist of the method: as §1
For the next experiment, the system named is Diplodia maydis (Dm). Description: In vitro pathogen growth inhibition assay, Dm. The class given is cell-based. As to conditions: Stenocarpella maydis, 48 h, ≥90% inhibition; 48 hours vs 2% DMSO control; read-out: Compound Concentration (ppm) sufficient for ≥90% inhibition of growth, Dm. The procedure, abridged: as §1
Experiment [4] has as its system Collectotrichum graminicola (Cg). Description: In vitro pathogen growth inhibition assay, Cg. It is filed as cell-based. The following applies: 48 h, ≥90% inhibition; 48 hours vs 2% DMSO control; read-out: Compound Concentration (ppm) sufficient for ≥90% inhibition of growth, Cg. The procedure, abridged:
as §1

The next experiment relates to Botrtyis cinerea (Bc). Put plainly: In vitro pathogen growth inhibition assay, Bc. The following applies: 48 h, ≥90% inhibition; 48 hours vs 2% DMSO control; read-out: Compound Concentration (ppm) sufficient for ≥90% inhibition of growth, Bc. It is filed as cell-based. The gist of the method: as §1
Another experiment deals with Fusarium graminearum. It is filed as in vivo. The following applies: spray on flowering Triticum aestivum cv. Samson, inoculated 24 hours after treatment, evaluated 14 days later.
Another experiment has as its system Septoria tritici (St). Description: In vitro pathogen growth inhibition assay, St. The class given is cell-based. As to conditions: Zymoseptoria tritici, 48 h, ≥90% inhibition; 48 hours vs 2% DMSO control; read-out: Compound Concentration (ppm) sufficient for ≥90% inhibition of growth, St. The gist of the method:
as §1

A further experiment has as its system Sphaerotheca fuliginea. Put plainly: Foliar protection for cucumber powdery mildew control. The class given is in vivo. The following applies: foliar spray on Cucumis sativus cv. Straight Eight, inoculated 24 hours after treatment, evaluated 7 days later. On the procedure:
Plants (Cucumis sativus cv. Straight Eight) were grown for 10 days in 2.5-inch square pots containing Metromix 200 medium amended with fertilizer. For propagation, plants were maintained in a growth chamber at conditions of 23 to 27° C., 16 hour light cycle, ambient humidity, and with sub-irrigation as needed. After inoculation with the pathogen of Sphaerotheca fuliginea, plants were kept at conditions of 23 to 27° C., 16 hour light cycle, 60% relative humidity, and with sub-irrigation as needed to facilitate infection and disease development. […] An atomizer was used for applying the solution onto both sides of the leaves until thoroughly wetted. […] At 24 hours after treatment, the plants were moved to a cooler chamber and inoculated by shaking well-colonized, untreated stock plants above the treated plants. This allowed producing a settling cloud of spores and resulting in uniform infection. Inoculated plants were kept near other sporulating stock plants to allow for infection of newly emerging leaves. Efficacy was evaluated in 7 days later by examining leaves for colonization and growth of mildew. Table 5 lists the results of cucumber powdery mildew control at a compound concentration of 10 ppm or lower.

For experiment [5], the system named is Phytophthora capsici (Pc). Description: In vitro pathogen growth inhibition assay, Pc. It is filed as cell-based. The following applies: 48 h, ≥90% inhibition, 48 hours vs 2% DMSO control, read-out: Compound Concentration (ppm) sufficient for ≥90% inhibition of growth, Pc. The procedure, abridged: as §1
The subject of experiment [6] is Fusarium virguliforme (Fv). Description: In vitro pathogen growth inhibition assay, Fv. The class given is cell-based. The following applies: ≥90% inhibition, 48 hours vs 2% DMSO control, read-out: Compound Concentration (ppm) sufficient for ≥90% inhibition of growth, Fv. The gist of the method: as §1
A further experiment deals with Phakopsora pachyrhizi. Put plainly: Foliar protection test for Asian soybean rust control. As to conditions: foliar application to soybean (Glycine max AG4832), percent disease area evaluated 14 days later. The class given is in vivo.

Consider `COc1ccccc1[C@H](Cn1c(=O)n(C(C)(C)C(=O)N2CCCC2)c(=O)c2c(C)c(-n3nccn3)sc21)OC1CCOCC1` [Compound I-034, (R)-1-(2-(2-methoxyphenyl)-2-((tetrahydro-2H-pyran-4-yl)oxy)ethyl)-5-methyl-3-(2-methyl-1-oxo-1-(pyrrolidin-1-yl)propan-2-yl)-6-(2H-1,2,3-triazol-2-yl)thieno[2,3-d]pyrimidine-2,4(1H,3H)-dione], for which the “Barley Powdery Mildew Control at a compound concentration of 10 ppm or lower” value in experiment [1] is recorded as “AA (≥85% control of barley powdery mildew)”. For the same compound, the “Wheat Leaf Rust Control at a compound concentration of 10 ppm or lower” value (“Wheat Leaf Rust Control … of 10 ppm or lower” below) with Puccinia triticina was “AA (≥85% control of wheat leaf rust)”. Further, the “Septoria Leaf Blotch Control at a compound concentration of 25 ppm or lower” value in [2] is “B (from 50 to 69% control of wheat septoria leaf blotch)”. Moreover, the IC90 is 0.08 µg/mL (≈ 0.128 µM) in the experiment with Rhizoctonia solani (Rs); 0.08 µg/mL (≈ 0.128 µM) in [3]; ≥ 0.4 µg/mL in the experiment on Diplodia maydis (Dm); ≥ 0.4 µg/mL in [4]; 0.4 µg/mL (≈ 0.642 µM) in the experiment with Botrtyis cinerea (Bc); ≥ 2 µg/mL with Septoria tritici (St). For the same compound, the IC90 in experiment [5] is ≥ 10 µg/mL; in experiment [6], 0.4 µg/mL (≈ 0.642 µM). Also, the “Wheat Fusarium Head Blight Control at a compound concentration of 25 ppm or lower” value with Fusarium graminearum was “C (from 25 to 49% control of wheat fusarium head blight)”. Further, in the experiment on Sphaerotheca fuliginea, the “Cucumber Powdery Mildew Control at a compound concentration of 10 ppm or lower” value is listed as “AA (≥85% control of cucumber powdery mildew)”. The “Asian Soybean Rust Control at a compound concentration of 25 ppm or lower” value (“Asian Soybean Rust Control … of 25 ppm or lower” for short) with Phakopsora pachyrhizi is on record as “AA (≥85% control of Asian soybean rust)”.

As to `COCCO[C@@H](Cn1c(=O)n(C(C)C(=O)NC(C)C)c(=O)c2c(C)c(-n3nccn3)sc21)c1cc(F)ccc1OC` (stereo partly drawn) [Compound I-082, 2-(1-((R)-2-(5-fluoro-2-methoxyphenyl)-2-(2-methoxyethoxy)ethyl)-5-methyl-2,4-dioxo-6-(2H-1,2,3-triazol-2-yl)-1,4-dihydrothieno[2,3-d]pyrimidin-3 (2H)-yl)-N-isopropylpropanamide], in experiment [1], the “Barley Powdery Mildew Control at a compound concentration of 10 ppm or lower” value is “AA (≥85% control of barley powdery mildew)”. The “Wheat Leaf Rust Control … of 10 ppm or lower” value in the experiment on Puccinia triticina is reported as “B (from 50 to 69% control of wheat leaf rust)”. The “Septoria Leaf Blotch Control at a compound concentration of 25 ppm or lower” value in experiment [2] is given as “AA (≥85% control of wheat septoria leaf blotch)”. Moreover, the IC90 is 0.24 µg/mL (≈ 0.408 µM) in the experiment with Rhizoctonia solani (Rs); 0.08 µg/mL (≈ 0.136 µM) in experiment [3]; 0.4 µg/mL (≈ 0.68 µM) with Diplodia maydis (Dm); 0.4 µg/mL (≈ 0.68 µM) in [4]; 2 µg/mL (≈ 3.4 µM) with Botrtyis cinerea (Bc); 30 µg/mL (≈ 51 µM) in the experiment on Septoria tritici (St). The IC90 came to 10 µg/mL (≈ 17 µM) in experiment [5] and 0.4 µg/mL (≈ 0.68 µM) in [6]. Also, the “Wheat Fusarium Head Blight Control at a compound concentration of 25 ppm or lower” value with Fusarium graminearum was “C (from 25 to 49% control of wheat fusarium head blight)”. In the experiment with Sphaerotheca fuliginea, the “Cucumber Powdery Mildew Control at a compound concentration of 10 ppm or lower” value is listed as “AA (≥85% control of cucumber powdery mildew)”. In the experiment with Phakopsora pachyrhizi, the “Asian Soybean Rust Control … of 25 ppm or lower” value is “B (from 50 to 69% control of Asian soybean rust)”.

Turning to `COc1ccc(F)cc1[C@H](Cn1c(=O)n([C@@H](C)C(=O)N(C)C(C)C)c(=O)c2c(C)c(-n3nccn3)sc21)OCCO` [Compound I-089, (S)-2-(1-((R)-2-(5-fluoro-2-methoxyphenyl)-2-(2-hydroxyethoxy)ethyl)-5-methyl-2,4-dioxo-6-(2H-1,2,3-triazol-2-yl)-1,4-dihydrothieno[2,3-d]pyrimidin-3 (2H)-yl)-N-isopropyl-N-methylpropanamide], the “Barley Powdery Mildew Control at a compound concentration of 10 ppm or lower” value in [1] is “B (from 50 to 69% control of barley powdery mildew)”. In addition, the “Wheat Leaf Rust Control … of 10 ppm or lower” value with Puccinia triticina is given as “AA (≥85% control of wheat leaf rust)”. The “Septoria Leaf Blotch Control at a compound concentration of 25 ppm or lower” value in [2] is “C (from 25 to 49% control of wheat septoria leaf blotch)”. The IC90 in the experiment on Rhizoctonia solani (Rs) is 0.08 µg/mL (≈ 0.136 µM); in [3], 0.08 µg/mL (≈ 0.136 µM); with Diplodia maydis (Dm), 2 µg/mL (≈ 3.4 µM); in experiment [4] it was > 0.4 µg/mL; in the experiment on Botrtyis cinerea (Bc), > 0.4 µg/mL; with Septoria tritici (St), ≥ 10 µg/mL. Further, the IC90 in [5] is ≥ 50 µg/mL; in experiment [6] it was > 0.4 µg/mL. For the same compound, the “Wheat Fusarium Head Blight Control at a compound concentration of 25 ppm or lower” value in the experiment with Fusarium graminearum is “D (<25% control of wheat fusarium head blight)”. In addition, the “Cucumber Powdery Mildew Control at a compound concentration of 10 ppm or lower” value in the experiment on Sphaerotheca fuliginea was “AA (≥85% control of cucumber powdery mildew)”. Also, in the experiment with Phakopsora pachyrhizi, the “Asian Soybean Rust Control … of 25 ppm or lower” value was “A (from 70% to 84% control of Asian soybean rust)”.

`COc1ccc(F)cc1[C@H](Cn1c(=O)n([C@H](C)C(=O)N(C)C(C)C)c(=O)c2c(C)c(-n3nccn3)sc21)OCCO` [Compound I-090, (R)-2-(1-((R)-2-(5-fluoro-2-methoxyphenyl)-2-(2-hydroxyethoxy)ethyl)-5-methyl-2,4-dioxo-6-(2H-1,2,3-triazol-2-yl)-1,4-dihydrothieno[2,3-d]pyrimidin-3 (2H)-yl)-N-isopropyl-N-methylpropanamide]: the “Barley Powdery Mildew Control at a compound concentration of 10 ppm or lower” value in [1] was “A (from 70% to 84% control of barley powdery mildew)”. In the experiment with Puccinia triticina, the “Wheat Leaf Rust Control … of 10 ppm or lower” value is given as “AA (≥85% control of wheat leaf rust)”. Moreover, the “Septoria Leaf Blotch Control at a compound concentration of 25 ppm or lower” value in [2] was “A (from 70% to 84% control of wheat septoria leaf blotch)”. For the same compound, the IC90 with Rhizoctonia solani (Rs) is 0.08 µg/mL (≈ 0.136 µM); in [3], 0.08 µg/mL (≈ 0.136 µM); with Diplodia maydis (Dm) it was > 0.08 µg/mL; in experiment [4] it was 0.08 µg/mL (≈ 0.136 µM); in the experiment on Botrtyis cinerea (Bc), 2 µg/mL (≈ 3.4 µM); in the experiment on Septoria tritici (St), ≥ 2 µg/mL. Moreover, the IC90 is 2 µg/mL (≈ 3.4 µM) in [5] and > 0.4 µg/mL in [6]. In addition, the “Wheat Fusarium Head Blight Control at a compound concentration of 25 ppm or lower” value in the experiment on Fusarium graminearum is listed as “D (<25% control of wheat fusarium head blight)”. For the same compound, the “Cucumber Powdery Mildew Control at a compound concentration of 10 ppm or lower” value in the experiment with Sphaerotheca fuliginea is “A (from 70% to 84% control of cucumber powdery mildew)”. The “Asian Soybean Rust Control … of 25 ppm or lower” value with Phakopsora pachyrhizi is reported as “B (from 50 to 69% control of Asian soybean rust)”.
